In ChEMBL document CHEMBL1201862, “PubChem BioAssay data set” (2004):
Where a name gives a salt, the structure may show the parent alone.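 A five-concentration, 48-hour dose response in 96-well plates underlies each endpoint, interpolated linearly between surrounding concentrations. Here, GI50 denotes the concentration required for 50% inhibition of growth.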 Active and inactive are the calls of the source. Rule as the data show it: active = GI50 up to about 1.1 µM and inactive = higher. Where a SMILES comes first, the peptide text is derived from it. The star is where a group is joined. Boc = CC(C)(C)OC(=O)*

Experiments:
Assay in all cases: NCI tumour cell line growth inhibition, 48 h
[1] = test system: HOP-92
[2] = test system: UACC-257
[3] = test system: EKVX
[4] = test system: SF-295
[5] = test system: MOLT-4
[6] = test system: 786-0
[7] = test system: OVCAR-8
[8] = test system: OVCAR-5
[9] = test system: ACHN
[10] = test system: OVCAR-4
[11] = test system: Malme-3M
[12] = test system: SNB-75
[13] = test system: HT-29
[14] = test system: NCI-H460
[15] = test system: A498
[16] = test system: HCT-116
[17] = test system: SK-MEL-5
[18] = test system: RXF 393

Compound	GI50 [1]	GI50 [2]	GI50 [3]	GI50 [4]	GI50 [5]	GI50 [6]	GI50 [7]	GI50 [8]	GI50 [9]	GI50 [10]	GI50 [11]	GI50 [12]	GI50 [13]	GI50 [14]	GI50 [15]	GI50 [16]	GI50 [17]	GI50 [18]
COc1ccc(-c2nc(-c3cnccn3)n(C3OC(CO)C(O)C3O)n2)cc1 (stereo unspecified)	> 10 µM (inactive)	> 10 µM (inactive)	> 10 µM (inactive)	> 10 µM (inactive)	> 10 µM (inactive)	> 10 µM (inactive)	> 10 µM (inactive)	> 10 µM (inactive)	> 10 µM (inactive)	> 10 µM (inactive)	> 10 µM (inactive)	> 10 µM (inactive)	> 10 µM (inactive)	> 10 µM (inactive)				
Cn1c(N)cc(=O)nc1N			> 100 µM (inactive)	> 100 µM (inactive)	> 100 µM (inactive)	> 100 µM (inactive)	> 100 µM (inactive)	> 100 µM (inactive)	> 100 µM (inactive)	> 100 µM (inactive)	> 100 µM (inactive)	> 100 µM (inactive)	> 100 µM (inactive)	> 100 µM (inactive)	> 100 µM (inactive)	> 100 µM (inactive)	> 100 µM (inactive)	
CCCCCCC(C)CC(CCCCCC)NCCOC(=O)c1ccc([N+](=O)[O-])cc1 (stereo unspecified)	10.1 µM (inactive)	9.46 µM (inactive)	13.7 µM (inactive)	11.7 µM (inactive)		14.9 µM (inactive)	10.2 µM (inactive)	31.2 µM (inactive)	15.1 µM (inactive)	11.7 µM (inactive)	13.7 µM (inactive)	14.4 µM (inactive)	5.43 µM (inactive)			11.7 µM (inactive)	14.3 µM (inactive)	
Cc1nnc2n1N=C(c1cc(F)c(Cl)cc1Cl)/C(=C/c1ccc(-c3ccc([N+](=O)[O-])cc3)o1)S2	> 100 µM (inactive)	> 100 µM (inactive)	> 100 µM (inactive)	> 100 µM (inactive)	29.2 µM (inactive)	78.3 µM (inactive)	35.7 µM (inactive)	> 100 µM (inactive)	> 100 µM (inactive)	66.5 µM (inactive)	> 100 µM (inactive)		69.2 µM (inactive)	> 100 µM (inactive)	> 100 µM (inactive)	46.1 µM (inactive)	56.9 µM (inactive)	
COc1cc(O)c2c(=O)c(O)c(-c3ccc(O)c(O)c3)oc2c1 [RHAMNETIN]	10.5 µM (inactive)	13 µM (inactive)	10.2 µM (inactive)	21.2 µM (inactive)	6.95 µM (inactive)		10.7 µM (inactive)	19.7 µM (inactive)	5.47 µM (inactive)	0.403 µM (active)	17.7 µM (inactive)		15.9 µM (inactive)	4.25 µM (inactive)	3.68 µM (inactive)	14.6 µM (inactive)	10.5 µM (inactive)	
Cn1c(=O)oc2cc(C(=S)N3CCC(Cc4ccccc4)CC3)ccc21		> 100 µM (inactive)	> 100 µM (inactive)	> 100 µM (inactive)	48.1 µM (inactive)	> 100 µM (inactive)	> 100 µM (inactive)	> 100 µM (inactive)	> 100 µM (inactive)		> 100 µM (inactive)	55.6 µM (inactive)	> 100 µM (inactive)	> 100 µM (inactive)	> 100 µM (inactive)	> 100 µM (inactive)	51.4 µM (inactive)	> 100 µM (inactive)
CCCCCCCCCCCCn1c(=O)cc(NCCCC)c2cc3c(NCCCC)cc(=O)n(CCCCCCCCCCCC)c3nc21	> 100 µM (inactive)	> 100 µM (inactive)		> 100 µM (inactive)	> 100 µM (inactive)	> 100 µM (inactive)			> 100 µM (inactive)	> 100 µM (inactive)	> 100 µM (inactive)	> 100 µM (inactive)		> 100 µM (inactive)	> 100 µM (inactive)	> 100 µM (inactive)	> 100 µM (inactive)	
COc1ccc(N2C(=O)C3c4[nH]c5c(C)cccc5c4C4CCC(C(C)(C)C)CC4C3C2=O)cc1 (stereo unspecified)			5.18 µM (inactive)	> 10 µM (inactive)	3.47 µM (inactive)		> 10 µM (inactive)	> 10 µM (inactive)	5.12 µM (inactive)	> 10 µM (inactive)	> 10 µM (inactive)	> 10 µM (inactive)	2.32 µM (inactive)	2.83 µM (inactive)	> 10 µM (inactive)	5.01 µM (inactive)	> 10 µM (inactive)	3.36 µM (inactive)
CN(C)CCOc1ccc(/C(=C(/CCCl)c2ccccc2)c2ccccc2)cc1 [TOREMIFENE CITRATE]	3.67 µM (inactive)	20.3 µM (inactive)	15.9 µM (inactive)	15 µM (inactive)	18.7 µM (inactive)	17.8 µM (inactive)	17.7 µM (inactive)	18.1 µM (inactive)	17.5 µM (inactive)	17.3 µM (inactive)	17.9 µM (inactive)	11.9 µM (inactive)	5.81 µM (inactive)	15.7 µM (inactive)		16.7 µM (inactive)	16 µM (inactive)	
CC1CC/C(=C\c2ccc(F)cc2)C(=O)/C1=C/c1ccc(F)cc1 (stereo unspecified)		15.7 µM (inactive)	3.67 µM (inactive)	2.84 µM (inactive)	3.02 µM (inactive)	2.9 µM (inactive)	2.7 µM (inactive)	4.13 µM (inactive)	4.15 µM (inactive)		17.9 µM (inactive)	2.04 µM (inactive)	2.92 µM (inactive)		12.6 µM (inactive)	2.5 µM (inactive)	4.57 µM (inactive)	3.17 µM (inactive)
COC(=O)c1cc(S(=O)(=O)NC2=NNC(C)CN2)c(S)cc1Cl (stereo unspecified)		> 100 µM (inactive)	90.2 µM (inactive)	54.3 µM (inactive)	77.3 µM (inactive)	56.1 µM (inactive)	34.8 µM (inactive)	65.3 µM (inactive)	> 100 µM (inactive)	33.9 µM (inactive)	24 µM (inactive)	24.7 µM (inactive)	42.7 µM (inactive)	44.8 µM (inactive)	34.5 µM (inactive)	30.6 µM (inactive)	26.4 µM (inactive)	
OCC(O)C(O)C(C=NNc1ncnc2ccc(Br)cc12)=NNc1ncnc2ccc(Br)cc12 (stereo unspecified)	4.3 µM (inactive)	3.52 µM (inactive)	0.581 µM (active)	4.74 µM (inactive)	0.282 µM (active)	1.14 µM (inactive)	1.72 µM (inactive)	5.13 µM (inactive)	1.85 µM (inactive)	0.435 µM (active)	1.84 µM (inactive)	5.82 µM (inactive)	0.662 µM (active)		26 µM (inactive)	0.404 µM (active)	1.22 µM (inactive)	
CN(C(=O)C1=CCC2(CC1)OCCO2)c1ccccc1I	> 100 µM (inactive)	> 100 µM (inactive)	> 100 µM (inactive)	> 100 µM (inactive)	> 100 µM (inactive)	> 100 µM (inactive)	> 100 µM (inactive)	> 100 µM (inactive)	> 100 µM (inactive)	> 100 µM (inactive)		> 100 µM (inactive)	> 100 µM (inactive)	> 100 µM (inactive)	> 100 µM (inactive)	> 100 µM (inactive)	> 100 µM (inactive)	
Oc1ccc(-c2nc(-c3cccnc3)c(-c3ccc(Cl)cc3)[nH]2)cc1		16.1 µM (inactive)	13.2 µM (inactive)	14 µM (inactive)	2.52 µM (inactive)	13.6 µM (inactive)	14.8 µM (inactive)	19.3 µM (inactive)	14.5 µM (inactive)	11.2 µM (inactive)	13.5 µM (inactive)	7.46 µM (inactive)	15.2 µM (inactive)	11.1 µM (inactive)		13.4 µM (inactive)	12.1 µM (inactive)	13.3 µM (inactive)
COc1cc(C2SCC(=O)N2c2cccc(Cl)c2)cc(OC)c1OC (stereo unspecified)	31.2 µM (inactive)	> 100 µM (inactive)	76.9 µM (inactive)	43.7 µM (inactive)	37.2 µM (inactive)	51.6 µM (inactive)	> 100 µM (inactive)	> 100 µM (inactive)	> 100 µM (inactive)	54.6 µM (inactive)			> 100 µM (inactive)	> 100 µM (inactive)	> 100 µM (inactive)	58.9 µM (inactive)	> 100 µM (inactive)	
COC(=O)C(Cc1c[nH]c2ccccc12)NC(=O)C(Cc1c[nH]c2ccccc12)NC(=O)C(Cc1c[nH]c2ccccc12)NC(=O)C(Cc1c[nH]c2ccccc12)NC(=O)C(Cc1c[nH]c2ccccc12)NC(=O)C(Cc1c[nH]c2ccccc12)NC(=O)C(Cc1c[nH]c2ccccc12)NC(=O)OC(C)(C)C (stereo unspecified) (Boc-WWWWWWW-OMe; configuration not given here)		67.5 µM (inactive)			40.6 µM (inactive)	26.3 µM (inactive)	> 100 µM (inactive)	42.4 µM (inactive)	> 100 µM (inactive)	> 100 µM (inactive)	34.5 µM (inactive)	17.3 µM (inactive)	> 100 µM (inactive)	> 100 µM (inactive)		33.3 µM (inactive)	20.9 µM (inactive)	
N=C(N)c1ccc(C(NC(=O)CNS(=O)(=O)c2ccc3ccccc3c2)P(=O)(Oc2ccccc2)Oc2ccccc2)cc1 (stereo unspecified)	29.6 µM (inactive)	> 100 µM (inactive)			21 µM (inactive)	36.8 µM (inactive)	> 100 µM (inactive)	32.6 µM (inactive)	> 100 µM (inactive)	> 100 µM (inactive)	68.1 µM (inactive)	27 µM (inactive)	98.6 µM (inactive)	> 100 µM (inactive)		37.8 µM (inactive)	39.1 µM (inactive)	> 100 µM (inactive)
